Test results published in ChEMBL document CHEMBL1681767, “Design and synthesis of tricyclic tetrahydroquinolines as a new series of nonsteroidal selective androgen receptor modulators (SARMs)” (Bioorg Med Chem Lett, 2011).
Active and inactive are the calls of the source. The rule behind the calls is not given here.

How the values were obtained:
[1] = Displacement of [3H]17-beta-estradiol from rabbit ER by liquid scintillation counting; design: species or system Oryctolagus cuniculus
Progesterone receptor = biological target: T1, Progesterone receptor (Oryctolagus cuniculus, UniProt P06186); test: Displacement of [3H]progesterone from rabbit PR by liquid scintillation counting
T1 sequence (P06186 whole entry): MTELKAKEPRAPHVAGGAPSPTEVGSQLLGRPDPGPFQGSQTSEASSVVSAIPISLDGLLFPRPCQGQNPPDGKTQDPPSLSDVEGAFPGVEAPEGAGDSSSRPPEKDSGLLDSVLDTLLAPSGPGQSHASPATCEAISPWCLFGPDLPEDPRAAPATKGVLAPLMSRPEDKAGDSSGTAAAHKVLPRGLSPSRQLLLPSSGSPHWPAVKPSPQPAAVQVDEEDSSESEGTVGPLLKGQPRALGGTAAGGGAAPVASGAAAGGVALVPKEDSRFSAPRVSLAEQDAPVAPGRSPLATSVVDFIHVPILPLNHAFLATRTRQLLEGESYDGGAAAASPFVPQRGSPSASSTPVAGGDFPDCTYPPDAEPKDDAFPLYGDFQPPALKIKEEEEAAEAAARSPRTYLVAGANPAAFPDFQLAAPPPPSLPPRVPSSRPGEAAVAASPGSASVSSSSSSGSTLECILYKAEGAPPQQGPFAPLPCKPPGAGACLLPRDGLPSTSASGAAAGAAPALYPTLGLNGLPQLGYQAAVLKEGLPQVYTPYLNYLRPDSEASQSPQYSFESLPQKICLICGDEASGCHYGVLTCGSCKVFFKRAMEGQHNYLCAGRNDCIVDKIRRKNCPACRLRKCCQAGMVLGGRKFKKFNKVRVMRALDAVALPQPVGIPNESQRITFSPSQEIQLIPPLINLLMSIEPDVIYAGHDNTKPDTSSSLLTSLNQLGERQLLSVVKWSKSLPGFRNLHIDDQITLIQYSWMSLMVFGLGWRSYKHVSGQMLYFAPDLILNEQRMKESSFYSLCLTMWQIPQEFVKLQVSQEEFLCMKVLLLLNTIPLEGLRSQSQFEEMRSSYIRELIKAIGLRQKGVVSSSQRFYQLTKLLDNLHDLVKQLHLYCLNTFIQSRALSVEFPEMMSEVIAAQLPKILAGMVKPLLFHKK

Rattus norvegicus [2] = test: Recovery of levator ani muscle weight in orchidectomized Sprague-Dawley rat at 3 mg/kg, sc; type: functional, organism-based; design: dose 3 mg/kg
Glucocorticoid receptor = biological target: T2, Glucocorticoid receptor (Rattus norvegicus, UniProt P06536); test: Displacement of [3H]dexamethasone from Sprague-Dawley rat GR by liquid scintillation counting
T2 sequence (P06536 whole entry): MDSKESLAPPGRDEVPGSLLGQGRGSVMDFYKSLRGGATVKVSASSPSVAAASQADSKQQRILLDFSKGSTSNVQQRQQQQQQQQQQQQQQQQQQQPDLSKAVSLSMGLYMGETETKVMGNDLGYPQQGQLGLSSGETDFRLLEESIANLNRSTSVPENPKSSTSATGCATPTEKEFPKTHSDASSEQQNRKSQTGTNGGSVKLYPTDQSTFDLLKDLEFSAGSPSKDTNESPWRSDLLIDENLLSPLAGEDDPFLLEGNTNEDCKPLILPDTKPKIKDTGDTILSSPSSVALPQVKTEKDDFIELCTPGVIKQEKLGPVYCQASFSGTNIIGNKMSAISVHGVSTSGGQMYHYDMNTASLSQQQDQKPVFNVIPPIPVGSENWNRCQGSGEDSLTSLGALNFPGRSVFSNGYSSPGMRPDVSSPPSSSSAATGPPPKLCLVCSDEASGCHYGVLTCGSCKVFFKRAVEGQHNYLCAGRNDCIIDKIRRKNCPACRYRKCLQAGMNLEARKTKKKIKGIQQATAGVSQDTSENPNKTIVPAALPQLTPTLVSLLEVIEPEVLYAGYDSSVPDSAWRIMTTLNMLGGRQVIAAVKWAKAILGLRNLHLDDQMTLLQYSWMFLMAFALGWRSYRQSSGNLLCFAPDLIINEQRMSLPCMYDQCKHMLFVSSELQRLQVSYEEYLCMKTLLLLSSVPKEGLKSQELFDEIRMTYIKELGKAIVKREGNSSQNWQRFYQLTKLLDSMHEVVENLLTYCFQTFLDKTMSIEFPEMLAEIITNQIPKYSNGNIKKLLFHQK

[3] = biological target: T3, Mineralocorticoid receptor (Rattus norvegicus, UniProt P22199); test: Displacement of [3H]aldosterone from Sprague-Dawley rat MR by liquid scintillation counting
T3 sequence (P22199 whole entry): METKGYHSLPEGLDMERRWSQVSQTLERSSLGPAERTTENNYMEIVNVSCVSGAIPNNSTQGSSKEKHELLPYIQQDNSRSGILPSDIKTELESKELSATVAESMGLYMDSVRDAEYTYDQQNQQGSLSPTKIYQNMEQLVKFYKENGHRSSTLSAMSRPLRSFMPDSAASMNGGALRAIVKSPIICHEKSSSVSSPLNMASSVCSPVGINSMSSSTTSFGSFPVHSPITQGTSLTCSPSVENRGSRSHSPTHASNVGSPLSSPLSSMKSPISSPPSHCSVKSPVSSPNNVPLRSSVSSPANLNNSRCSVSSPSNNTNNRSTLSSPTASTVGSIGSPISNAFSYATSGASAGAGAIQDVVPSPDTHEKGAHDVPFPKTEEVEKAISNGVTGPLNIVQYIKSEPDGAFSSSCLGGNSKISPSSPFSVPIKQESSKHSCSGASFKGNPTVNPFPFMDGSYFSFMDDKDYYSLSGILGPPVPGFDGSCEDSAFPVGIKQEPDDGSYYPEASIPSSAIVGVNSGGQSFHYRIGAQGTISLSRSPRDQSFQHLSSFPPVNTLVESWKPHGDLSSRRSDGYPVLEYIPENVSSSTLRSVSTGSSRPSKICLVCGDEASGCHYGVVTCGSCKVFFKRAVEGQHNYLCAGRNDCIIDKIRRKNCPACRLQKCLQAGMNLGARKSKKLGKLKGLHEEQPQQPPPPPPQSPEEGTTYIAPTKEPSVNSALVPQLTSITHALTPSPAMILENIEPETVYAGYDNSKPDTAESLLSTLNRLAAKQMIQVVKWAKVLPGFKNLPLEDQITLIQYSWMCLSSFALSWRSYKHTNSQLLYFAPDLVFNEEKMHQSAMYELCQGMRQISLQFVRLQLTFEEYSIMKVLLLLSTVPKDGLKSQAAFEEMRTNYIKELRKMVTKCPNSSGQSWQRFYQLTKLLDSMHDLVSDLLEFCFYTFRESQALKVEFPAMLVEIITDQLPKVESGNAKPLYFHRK

Rattus norvegicus [4] = test: Recovery of […] weight in orchidectomized Sprague-Dawley rat at 3 mg/kg, sc relative to control; type: functional; conditions: route subcutaneous

CC(C)(CO)[C@H]1Nc2ccc([N+](=O)[O-])cc2[C@H]2C=CC[C@H]21
IC50 [1]: > 1000 µM | IC50 (Progesterone receptor): 0.13 µM | Activity (Rattus norvegicus [2]): Active | IC50 (Glucocorticoid receptor): 18 µM | IC50 [3]: 6.3 µM | Activity (Rattus norvegicus [4]): 50%
